# Test system: 186277-243-T-J2-PDC complex spheroids, viability
# Assay: Anticancer human tumor 186277-243-T-J2-PDC patient-derived colon adenocarcinoma cell line growth inhibition [RAS]
# Conditions: for IC50: curve of first compound; for viability, T/C: stronger effect = lower value
# Procedure, shortened: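 Multi-cell-type spheroids: tumor cells plus HUVEC endothelial cells and mesenchymal stem cells. RAS-pathway inhibitors were combined with targeted agents, each dosed in half-log steps down from clinical Cmax, or from 10 microM when Cmax was unknown.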
# [1] = second compound 0.000949 µM, first compound 0.0316 µM
# [2] = second compound 0.000949 µM, first compound 0.1 µM
# [3] = second compound 0.000949 µM, first compound 0.316 µM
# [4] = second compound 0.000949 µM, first compound 1 µM
# [5] = second compound 0.000949 µM, first compound 3.16 µM
# [6] = second compound 0.000949 µM, first compound 10 µM
# [7] = second compound 0.003 µM, first compound 0.0316 µM
# [8] = second compound 0.003 µM, first compound 0.1 µM
# [9] = second compound 0.003 µM, first compound 0.316 µM
# [10] = second compound 0.003 µM, first compound 1 µM
# [11] = second compound 0.003 µM, first compound 3.16 µM
# [12] = second compound 0.003 µM, first compound 10 µM
# [13] = second compound 0.00949 µM, first compound 0.0316 µM
# [14] = second compound 0.00949 µM, first compound 0.1 µM
# [15] = second compound 0.00949 µM, first compound 0.316 µM
# [16] = second compound 0.00949 µM, first compound 1 µM
# [17] = second compound 0.00949 µM, first compound 3.16 µM
# [18] = second compound 0.00949 µM, first compound 10 µM
# [19] = second compound 0.03 µM, first compound 0.0316 µM
# [20] = second compound 0.03 µM, first compound 0.1 µM
# [21] = second compound 0.03 µM, first compound 0.316 µM
# [22] = second compound 0.03 µM, first compound 1 µM
# [23] = second compound 0.03 µM, first compound 3.16 µM
# [24] = second compound 0.03 µM, first compound 10 µM
# [25] = second compound 0.0949 µM, first compound 0.0316 µM
# [26] = second compound 0.0949 µM, first compound 0.1 µM
# [27] = second compound 0.0949 µM, first compound 0.316 µM
# [28] = second compound 0.0949 µM, first compound 1 µM
# [29] = second compound 0.0949 µM, first compound 3.16 µM
# [30] = second compound 0.0949 µM, first compound 10 µM
# [31] = second compound 0.3 µM, first compound 0.0316 µM
# [32] = second compound 0.3 µM, first compound 0.1 µM
# [33] = second compound 0.3 µM, first compound 0.316 µM
# [34] = second compound 0.3 µM, first compound 1 µM
# [35] = second compound 0.3 µM, first compound 3.16 µM
# [36] = second compound 0.3 µM, first compound 10 µM
# 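Note: spheroids exposed to compounds for 7 days before viability read.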
smiles,measurement,setting,value
Cc1nc(N2CCC3(CC2)COC(C)C3N)c(CO)nc1Sc1ccnc(N)c1Cl (centres undefined) + CCn1c(-c2cccnc2C(C)OC)c2c3cc(ccc31)N1CCOC(CC(NC(=O)C(C(C)C)N(C)C(=O)C3(F)CCN(C(=O)C#CC(C)(C)N(C)C)CC3)C(=O)N3CCCC(N3)C(=O)OCC(C)(C)C2)C1,IC50,second compound 0.000949 µM,> 10 µM
same,IC50,second compound 0.003 µM,> 10 µM
same,IC50,second compound 0.00949 µM,> 10 µM
same,IC50,second compound 0.03 µM,> 10 µM
same,IC50,second compound 0.0949 µM,> 10 µM
same,IC50,second compound 0.3 µM,> 10 µM
same,"viability, T/C",[1],88.9%
same,"viability, T/C",[2],85.4%
same,"viability, T/C",[3],111%
same,"viability, T/C",[4],104%
same,"viability, T/C",[5],141%
same,"viability, T/C",[6],131%
same,"viability, T/C",[7],91.8%
same,"viability, T/C",[8],100%
same,"viability, T/C",[9],98.2%
same,"viability, T/C",[10],114%
same,"viability, T/C",[11],133%
same,"viability, T/C",[12],130%
same,"viability, T/C",[13],99.9%
same,"viability, T/C",[14],130%
same,"viability, T/C",[15],105%
same,"viability, T/C",[16],113%
same,"viability, T/C",[17],132%
same,"viability, T/C",[18],128%
same,"viability, T/C",[19],92.3%
same,"viability, T/C",[20],110%
same,"viability, T/C",[21],108%
same,"viability, T/C",[22],126%
same,"viability, T/C",[23],137%
same,"viability, T/C",[24],116%
same,"viability, T/C",[25],98.2%
same,"viability, T/C",[26],123%
same,"viability, T/C",[27],117%
same,"viability, T/C",[28],127%
same,"viability, T/C",[29],137%
same,"viability, T/C",[30],101%
same,"viability, T/C",[31],122%
same,"viability, T/C",[32],114%
same,"viability, T/C",[33],107%
same,"viability, T/C",[34],92.9%
same,"viability, T/C",[35],92.1%
same,"viability, T/C",[36],62.8%
NC1c2ccccc2OC12CCN(c1cnc3c(N4CCCc5ncccc54)n[nH]c3n1)CC2 (centres undefined) + CCn1c(-c2cccnc2C(C)OC)c2c3cc(ccc31)N1CCOC(CC(NC(=O)C(C(C)C)N(C)C(=O)C3(F)CCN(C(=O)C#CC(C)(C)N(C)C)CC3)C(=O)N3CCCC(N3)C(=O)OCC(C)(C)C2)C1,IC50,second compound 0.000949 µM,> 10 µM
same,IC50,second compound 0.003 µM,> 10 µM
same,IC50,second compound 0.00949 µM,> 10 µM
same,IC50,second compound 0.03 µM,> 10 µM
same,IC50,second compound 0.0949 µM,> 10 µM
same,IC50,second compound 0.3 µM,4.09 µM
same,"viability, T/C",[1],84.6%
same,"viability, T/C",[2],102%
same,"viability, T/C",[3],114%
same,"viability, T/C",[4],122%
same,"viability, T/C",[5],109%
same,"viability, T/C",[6],70.3%
same,"viability, T/C",[7],108%
same,"viability, T/C",[8],96.5%
same,"viability, T/C",[9],119%
same,"viability, T/C",[10],119%
same,"viability, T/C",[11],104%
same,"viability, T/C",[12],74.6%
same,"viability, T/C",[13],100%
same,"viability, T/C",[14],110%
same,"viability, T/C",[15],121%
same,"viability, T/C",[16],119%
same,"viability, T/C",[17],104%
same,"viability, T/C",[18],66.9%
same,"viability, T/C",[19],111%
same,"viability, T/C",[20],89%
same,"viability, T/C",[21],117%
same,"viability, T/C",[22],114%
same,"viability, T/C",[23],105%
same,"viability, T/C",[24],76%
same,"viability, T/C",[25],102%
same,"viability, T/C",[26],94.1%
same,"viability, T/C",[27],112%
same,"viability, T/C",[28],91.2%
same,"viability, T/C",[29],83.4%
same,"viability, T/C",[30],60.8%
same,"viability, T/C",[31],94.5%
same,"viability, T/C",[32],88.5%
same,"viability, T/C",[33],75.5%
same,"viability, T/C",[34],65.9%
same,"viability, T/C",[35],54.6%
same,"viability, T/C",[36],38.3%
